# Test results as given in PMC4914250, “Cancer therapeutic approach based on conformational stabilization of mutant p53 protein by small peptides” (Oncotarget, 2016).
# System: mutp53^R175H
# Experiment: ELISA of mutp53 DNA binding (p53RE oligonucleotide), H1299-p53^R175H cell extract
# Format: biochemical, human
# Conditions: H1299-p53^R175H extract, Figure 2B
# Procedure: (§1) Cell extracts were added to ELISA plates coated with the indicated antibodies to allow mutp53 to react with the peptides and antibodies. αp53-HRP Ab was used for assessment of p53 levels. Numbers represent ratio of absorbance between the PAb1620 and PAb240 samples. All reads were normalized to the control […] reading of each extract. MCF7 (WTp53) and H1299-mutp53^A135V (tsp53) cells were used as positive controls for the WTp53 conformation (1620/240 ratio equals or exceeds 5:1). […] 96 well plates were coated with anti-p53 antibody, cell extracts containing p53 were reacted with oligonucleotides that contain a p53RE consensus binding site, labeled with biotin, in the presence or absence (NT) of test peptides. Streptavidin-HRP is used to quantify the amount of oligos in the well. TMB assay was performed to determine bound mutp53 levels (450nm). MCF7 and the H1299-mutp53^A135V(TS) cells serve as positive controls for WTp53. C.and D. - Bar graphs illustrating the effect of various selected peptides on mut-p53 dependent expression on cell viability. […] D, ES2 cells expressing endogenous mutp53 (blue bars) and ES2 cells knocked out for p53 by CRISPR construct (light blue bars). Cell lines were treated with selected peptides, Cis-platinum was used as positive control for cell death. 48 hours after treatment, cells were washed with PBS, and the remaining attached cells were stained with Crystal violet and washed 4 times with PBS. Stained cells were dissolved in 10% acetic acid and plates were taken for optical density measurement at […]. TEXT PRINTED IN THE PICTURE: (A) pCAP1: 0.87 | (A) pCAP2: 0.53 | (A) pCAP3: 0.59 | (A) pCAP4: 0.59 | (A) pCAP5: 0.60 | (A) pCAP6: 0.75 | (A) pCAP23: 1.06 | (A) pCAP24: 1.44 | (A) pCAP36: 1.25 | (A) pCAP47: 1.54 | (A) pCAP54: 1.54 | (A) pCAP60: 2.73 | (A) pCAP68: 2.22 | (A) pCAP83: 1.56 | (A) pCAP97: 2.45 DOUBTS OF THE COPYIST ABOUT THIS PICTURE: Panel A: the numbers over the bars are printed very small, rotated and blurred, so 3, 5, 6, 8 and 9 cannot be told apart with certainty. All values are best readings: pCAP1 0.87, pCAP2 0.53, pCAP3 0.59, pCAP4 0.59, pCAP5 0.60, pCAP6 0.75, pCAP23 1.06, pCAP24 1.44, pCAP36 1.25, pCAP47 1.54, pCAP54 1.54, pCAP60 2.73, pCAP68 2.22, pCAP83 1.56, pCAP97 2.45 / Panel A: the picture prints no measure with the numbers over the bars, so they are given as bare numbers / Panel A: numbers are also printed over the controls, which are not substances and are left out of lines. Best readings: NT 0.60, 60° 30'' 0.48, 60° 1' 0.37, 60° 3' 0.13, 60° 10' 0.05, MCF7 3.32, H1299TS 3.25
# Next, we assessed the ability of our selected peptides to restore sequence-specific DNA binding to mutp53. To that end we employed an ELISA kit (R&D) in which cell extracts containing p53 are reacted with a biotinylated p53RE oligonucleotide and then incubated in wells coated with anti-p53 antibody, which is expected to trap the p53 protein and its associated p53RE DNA. The amount of p53RE retained in each well via p53 binding is quantified by incubation with streptavidin-HRP. […] Again, extracts of MCF7 and H1299-tsp53^A135V cells served as positive controls for WTp53 DNA binding activity. […] Importantly, there was substantial overlap between the peptides that stabilized the WT conformation (Figure 2A) and those that increased specific DNA binding (Figure 2B), further reinforcing the conclusion that those peptides stabilize mutp53 in a functional state. This was not seen with the randomly selected peptides 1-6 (black bars).
# For these experiments, a commercial p53/DNA binding kit of “R&D” (Cat-DYC1355-5 Lot-1273366FA) was used, in accordance with manufacturer guide lines. Briefly, 96 well plates we coated with anti-p53 antibody overnight. Cell extracts containing p53 are reacted with an oligonucleotide that contains a p53 consensus binding site (provided in the kit), labeled with Biotin, in the presence or absence (NT) of test peptides. […]
row,Substance,binding of mutp53 to the p53RE
1,IRGRIIR [pCAP-54],marked increase
2,WNHHHSTPHPAH [pCAP-97],marked increase
3,SFILFIRRGRLG [pCAP-60],marked increase
4,YRRLLIGMMWRRRRRRRRR [pCAP-68],marked increase

# Same assay, conditions: score 0-6 compared to positive control; mutp53 DNA binding
row,Substance,DNA H1299
1,HSSHHHPVHSWN [pCAP-83],5
2,myr-RRIRDPRILLLHFD [pCAP-325],4
3,IRGRIIR [pCAP-54],2
4,IRILMFLIGCGR [pCAP-23],1
5,"SFILFIRRGRLGRRRRRRRRR [pCAP-60R, pCAP-60 with poly arginine tail]",3
6,"myr-PRVLPSPHTIHPSQYP [pCAP-229, myristoylated peptide, similarity to HIPK2]",4
7,"IRGRIIRRRRRRRRR [pCAP-54R, pCAP-54 with poly arginine tail]",2
8,"LRCLLLLIGRVGRRRRRRRR [pCAP-24R, pCAP-24 with poly arginine tail]",3
9,YPTQGHLR [pCAP-36],2
10,LRCLLLLIGRVG [pCAP-24],3
11,WNHHHSTPHPAH [pCAP-97],4
12,"IRILMFLIGCGRRRRRRRRR [pCAP-23R, pCAP-23 with poly arginine tail]",3
13,"myr-RRKILFIRLMHNKH [pCAP-227, myristoylated peptide, similarity to GAS2]",3
14,"WNHHHSTPHPAHRRRRRR [pCAP-97R, pCAP-97 with poly arginine tail]",4
15,LHSKTLVL [pCAP-17],3
16,myr-RRLIVRILKLPNPPER [pCAP-242],4
17,SFILFIRRGRLG [pCAP-60],3
18,myr-RRKHNKHRPEPDSDER [pCAP-221],2
19,YRRLLIGMMWRRRRRRRRR [pCAP-68],3

# System: H1299 cells expressing mutp53^R175H
# Experiment: Crystal violet viability assay, H1299
# Format: cell-based
# Conditions: H1299 mutp53^R175H versus p53-null, 48 h
# Procedure: Cell extracts were added to ELISA plates coated with the indicated antibodies to allow mutp53 to react with the peptides and antibodies. αp53-HRP Ab was used for assessment of p53 levels. Numbers represent ratio of absorbance between the PAb1620 and PAb240 samples. All reads were normalized to the control PAb241 reading of each extract. MCF7 (WTp53) and H1299-mutp53^A135V (tsp53) cells were used as positive controls for the WTp53 conformation (1620/240 ratio equals or exceeds 5:1). […] 96 well plates were coated with anti-p53 antibody, cell extracts containing p53 were reacted with oligonucleotides that contain a p53RE consensus binding site, labeled with biotin, in the presence or absence (NT) of test peptides. Streptavidin-HRP is used to quantify the amount of oligos in the well. TMB assay was performed to determine bound mutp53 levels (450nm). MCF7 and the H1299-mutp53^A135V(TS) cells serve as positive controls for WTp53. C.and D. - Bar graphs illustrating the effect of various selected peptides on mut-p53 dependent expression on cell viability. […] D, ES2 cells expressing endogenous mutp53 (blue bars) and ES2 cells knocked out for p53 by CRISPR construct (light blue bars). Cell lines were treated with selected peptides, Cis-platinum was used as positive control for cell death. 48 hours after treatment, cells were washed with PBS, and the remaining attached cells were stained with Crystal violet and washed 4 times with PBS. Stained cells were dissolved in 10% acetic acid and plates were taken for optical density measurement at 595nM.
# This simple assay measures the total number of cells, thus reflecting the combination of both cell death and growth arrest effects. […] After 48 hours of treatment cells were stained with crystal violet and OD at 595nm was determined.
# Values on the Y-axis reflect the number of cells in the treated wells, normalized to the non-treated samples (NT; red bars).
row,Substance,"mutp53-specific effect on cell number, H1299"
1,HSSHHHPVHSWN [pCAP-83],mutp53-specific effect
2,IRGRIIR [pCAP-54],mutp53-specific effect
3,YPTQGHLR [pCAP-36],mutp53-specific effect
4,LRCLLLLIGRVG [pCAP-24],mutp53-specific effect
5,WNHHHSTPHPAH [pCAP-97],mutp53-specific effect
6,SFILFIRRGRLG [pCAP-60],mutp53-specific effect

# Same assay, conditions: score 0-6 compared to positive control, 48 h
row,Substance,Viability H1299
1,HSSHHHPVHSWN [pCAP-83],4
2,myr-RRIRDPRILLLHFD [pCAP-325],5
3,IRILMFLIGCGR [pCAP-23],3
4,"SFILFIRRGRLGRRRRRRRRR [pCAP-60R, pCAP-60 with poly arginine tail]",2
5,"myr-PRVLPSPHTIHPSQYP [pCAP-229, myristoylated peptide, similarity to HIPK2]",4
6,"IRGRIIRRRRRRRRR [pCAP-54R, pCAP-54 with poly arginine tail]",2
7,"LRCLLLLIGRVGRRRRRRRR [pCAP-24R, pCAP-24 with poly arginine tail]",4
8,YPTQGHLR [pCAP-36],2
9,WNHHHSTPHPAH [pCAP-97],3
10,"IRILMFLIGCGRRRRRRRRR [pCAP-23R, pCAP-23 with poly arginine tail]",3
11,"myr-RRKILFIRLMHNKH [pCAP-227, myristoylated peptide, similarity to GAS2]",5
12,"WNHHHSTPHPAHRRRRRR [pCAP-97R, pCAP-97 with poly arginine tail]",4
13,"EVTFRHSVV [pCAP-1, randomly selected peptide used as inert comparison]",1
14,HANLHHT [pCAP-87],3
15,myr-RRLIVRILKLPNPPER [pCAP-242],5
16,SFILFIRRGRLG [pCAP-60],2
17,myr-RRKHNKHRPEPDSDER [pCAP-221],2
18,YRRLLIGMMWRRRRRRRRR [pCAP-68],3

# System: HOP62
# Experiment: Crystal violet viability assay, HOP62
# Format: cell-based, human
# Set-up: key: score 0- no effect-white; score 6- as or more effective than positive control- black
# Conditions: score 0-6 compared to positive control, 48 h
# From the text: (§2) We also performed a similar analysis on ES2 ovarian cancer cells, which express endogenous mp53^S241F, compared to ES2 cells in which p53 was stably knocked out using CRISPR/Cas9 (ES2 p53KO Figure S1F), to control for specificity for mutp53 (Figure 2D). In ES2 cells, too, some of the peptides caused a significant reduction in cell numbers, more prominent in the mutp53 expressing cells than in their p53KO counterparts. […] Overall, we performed this analysis on several different mutp53-expressing human cancer cell lines, and the results are summarized in Table S3. Based on this comprehensive picture, we reduced the number of most promising candidate lead peptides to 30. These peptides were then synthesized with an 8 arginine C-terminal tail for enhanced delivery across cell membranes (pCAPs 130-160); for clarity, peptides are referred to by their original number, with an R for poly arginine (see Table S3).
# (§3) Cells were cultured in 96 wells plates with 2500-4000 cells/well. Serial dilutions of different peptides were added and the plates incubated for additional 48 h at 37°C. Then medium was removed and cell viability was determined by staining the cells with crystal violet (0.05%) in methanol/PBS (1:5, v/v), for 10 min, followed by 3 washes with PBS. 10% acetic acid was added to each well for 10 min. OD was determined at 595 nm.
row,Substance,Viability HOP62
1,myr-RRIRDPRILLLHFD [pCAP-325],4
2,IRILMFLIGCGR [pCAP-23],3
3,"SFILFIRRGRLGRRRRRRRRR [pCAP-60R, pCAP-60 with poly arginine tail]",2
4,"myr-PRVLPSPHTIHPSQYP [pCAP-229, myristoylated peptide, similarity to HIPK2]",4
5,"IRGRIIRRRRRRRRR [pCAP-54R, pCAP-54 with poly arginine tail]",2
6,YPTQGHLR [pCAP-36],3
7,WNHHHSTPHPAH [pCAP-97],4
8,"IRILMFLIGCGRRRRRRRRR [pCAP-23R, pCAP-23 with poly arginine tail]",3
9,"myr-RRKILFIRLMHNKH [pCAP-227, myristoylated peptide, similarity to GAS2]",6
10,"WNHHHSTPHPAHRRRRRR [pCAP-97R, pCAP-97 with poly arginine tail]",4
11,"EVTFRHSVV [pCAP-1, randomly selected peptide used as inert comparison]",3
12,HANLHHT [pCAP-87],3
13,myr-RRLIVRILKLPNPPER [pCAP-242],5
14,SFILFIRRGRLG [pCAP-60],3
15,myr-RRKHNKHRPEPDSDER [pCAP-221],5
16,YRRLLIGMMWRRRRRRRRR [pCAP-68],5

# System: ES2 ovarian cancer cells
# Experiment: Crystal violet viability assay, ES2
# Format: cell-based, human
# Set-up: key to Viability ES2: score 0- no effect-white; score 6- as or more effective than positive control- black
# Conditions: ES2 (mp53^S241F) versus ES2 p53KO, 48 h
# Procedure: as §1, §2, §3
row,Substance,"mutp53-specific effect on cell number, ES2"
1,HSSHHHPVHSWN [pCAP-83],mutp53-specific effect
2,IRGRIIR [pCAP-54],mutp53-specific effect
3,YPTQGHLR [pCAP-36],mutp53-specific effect
4,LRCLLLLIGRVG [pCAP-24],mutp53-specific effect
5,WNHHHSTPHPAH [pCAP-97],mutp53-specific effect
6,SFILFIRRGRLG [pCAP-60],mutp53-specific effect

# Same assay, conditions: score 0-6 compared to positive control, 48 h
row,Substance,Viability ES2
1,myr-RRIRDPRILLLHFD [pCAP-325],4
2,IRILMFLIGCGR [pCAP-23],3
3,"SFILFIRRGRLGRRRRRRRRR [pCAP-60R, pCAP-60 with poly arginine tail]",3
4,"IRGRIIRRRRRRRRR [pCAP-54R, pCAP-54 with poly arginine tail]",3
5,"LRCLLLLIGRVGRRRRRRRR [pCAP-24R, pCAP-24 with poly arginine tail]",3
6,YPTQGHLR [pCAP-36],3
7,HHPWTHHQRWS [pCAP-20],3
8,WNHHHSTPHPAH [pCAP-97],3
9,"IRILMFLIGCGRRRRRRRRR [pCAP-23R, pCAP-23 with poly arginine tail]",3
10,"myr-RRKILFIRLMHNKH [pCAP-227, myristoylated peptide, similarity to GAS2]",5
11,"WNHHHSTPHPAHRRRRRR [pCAP-97R, pCAP-97 with poly arginine tail]",4
12,LHSKTLVL [pCAP-17],3
13,"EVTFRHSVV [pCAP-1, randomly selected peptide used as inert comparison]",4
14,myr-RRLIVRILKLPNPPER [pCAP-242],5
15,SFILFIRRGRLG [pCAP-60],3
16,myr-RRKHNKHRPEPDSDER [pCAP-221],6
17,YRRLLIGMMWRRRRRRRRR [pCAP-68],5
